Experimental data from US20140212441A1, “PHARMACEUTICAL COMPOSITION FOR INFLAMMATORY DISEASES, ALLERGIC DISEASES AND AUTOIMMUNE DISEASES” (R-TECH UENO, LTD., priority 2011, published 2014).

Assays:
[1] = system: LPS-stimulated mouse B cell proliferation; test: B cell proliferation suppression test; assay type: cell-based; conditions: LPS-stimulated Balb/c spleen B lymphocytic cells, 3H thymidine uptake
Protocol: (§1) B lymphocytic cells (2×10^6/mL) isolated from the spleen of Balb/c mice (weighing 17±1 g) were cultured in a pH 7.4 AIM-V medium containing a given concentration of compound A and 10 mg/mL of a lipopolysaccharide (LPS) at 37° C. for 24 hours, and, after added with 120 nM ^3H thymidine, further cultured for 16 hours. The cells were collected by filter filtration, and the uptake of thymidine into the cells was measured using a liquid scintillation counter to evaluate the cell proliferation-suppressing effect and calculate IC50.

[2] = system: PiCl-induced atopic dermatitis model mice (NC/NgaTndCrlj, male); test: Atopic dermatitis mouse model: dermatitis score; assay type: in vivo; set-up: key to Dermatitis score (average ± standard error): sum of grades of five findings, each 0 (subclinical) to 3 (severe)
Protocol: (§2) An atopic dermatitis mouse model (NC/NgaTndCrlj, male) induced by picryl chloride (PiCl) was used to evaluate effects against dermal inflammation and hair conditions on the skin suffering from dermal inflammation.
(§3) PiCl-induced atopic dermatitis model mice were prepared by applying a PiCl solution to the sheared abdomen and footpad for sensitization and applying the PiCl solution to the sheared back and the right and left ears (both the inside and outside thereof) once a week for 5 weeks starting from the 5th day after sensitization for repeated induction. In each group, administration was performed once a day for 28 days starting from the 18th day after PiCl sensitization. Compound A and 0.1% tacrolimus ointment were openly applied to a ca. 3 cm×ca. 5 cm region of the neck and back of the model animals. The animals of the 5th group (the group of combined administration of prednisolone and 0.6 w/v % compound A) were orally administered 1 mg/kg of prednisolone and then transdermally administered 0.6 w/v % compound A. The animals of the 6th group (the group of combined administration of 0.1% tacrolimus ointment and 0.6 w/v % compound A) were administered 0.1% tacrolimus ointment at or beyond 3.5 hours after administration of 0.6 w/v % compound A.
(§4) Each evaluation used a dermatitis score and a hair restoration score. The scores were obtained by grading dermatitis and hair growth/hair restoration conditions at Day 1, 8, 15, 22, and 29 (the next day after final administration) of administration, according to the following criteria.
<Dermatitis Findings> The dermatitis score of each individual was expressed as the sum of grades (0: subclinical to 3: severe) of the following dermatitis findings (1) to (5).
(2) Flare/bleeding: Flare and bleeding symptoms in the induction site were observed.
(3) Edema: The edema of the auricle as the induction site was qualitatively observed.
An effect against atopic dermal inflammation was evaluated using the dermatitis score at Day 8 of administration.

[3] = system: Con A-stimulated mouse T cell proliferation; test: T cell proliferation suppression test; assay type: cell-based; conditions: Con A-stimulated Balb/c thymus T lymphocytic cells, 3H thymidine uptake
Protocol: as §1, with “T lymphocytic” for “B lymphocytic”, “cells (5×10^6/mL)” for “cells (2×10^6/mL)”, “the thymus” for “the spleen”, “and […]” for “and 10”, “of concanavalin A (Con A)” for “of a lipopolysaccharide (LPS)”

[4] = system: transcription factor NFAT-1; test: NF-AT gene transcription suppression test (lac Z reporter, Jurkat cells); assay type: cell-based; conditions: Homo sapiens, lac Z under NFAT-1 site, A23187 + PMA, β-galactosidase activity
Protocol: (§5) Human T lymphocyte Jurkat cells transformed with a β-galactosidase gene (lac Z) having a DNA binding site for the transcription factor NFAT-1 in its transcriptional control region (2.3×10^6/mL) were cultured together with a given concentration of compound A in a pH 7.4 RPMI-1640 medium at 37° C. for 20 minutes, and, after added with […] A23187 (calcium ionophore) and 50 ng/mL PMA (Phorbol 12-myristate 13-acetate), further cultured for 4 hours. The activity of β-galactosidase was measured by conversion from FDG (fluorescein-di-beta-D-galactopyranoside) to fluorescein. Fluorescent emission was measured using a SpectroFluor Plus plate reader and IC50 was calculated.

[5] = system: transcription factor NF-κB; test: NF-κB gene transcription suppression test (lac Z reporter, Jurkat cells); assay type: cell-based; conditions: Homo sapiens, lac Z under NF-κB site, A23187 + PMA, β-galactosidase activity
Protocol: as §5, with “NF-κB” for “NFAT-1”

[6] = system: PiCl-induced atopic dermatitis model mice (NC/NgaTndCrlj, male); test: Atopic dermatitis mouse model: hair restoration score; assay type: in vivo; set-up: key to Hair restoration score (average ± standard error): 0 = no hair growth, 3 = hair restoration in 75-100% of site
Protocol: as §2, §3, §4
<Hair Growth/Hair Restoration Condition> A region received transdermal administration (a ca. 3 cm×ca. 5 cm region of the neck and back) of each individual was observed.
0: No hair growth or hair restoration is noted in the observation site.
1: Hair growth and hair restoration are noted in 0<25% of the observation site.
2: Hair growth and hair restoration are noted in 25≦75% of the observation site.
3: Hair growth and hair restoration are noted in 75≦100% of the observation site.
Hair condition in the skin suffering from dermal inflammation was evaluated using hair restoration scores at Day 15, 22 and 29 of administration.

[7] = 0.08 w/v % Compound A transdermal once a day, Day 15
[8] = 0.08 w/v % Compound A transdermal once a day, Day 22
[9] = 0.08 w/v % Compound A transdermal once a day, Day 29
[10] = 0.3 w/v % Compound A transdermal once a day, Day 1
[11] = 0.3 w/v % Compound A transdermal once a day, Day 15
[12] = 0.3 w/v % Compound A transdermal once a day, Day 22
[13] = 0.3 w/v % Compound A transdermal once a day, Day 29
[14] = 0.6 w/v % Compound A transdermal once a day, Day 1
[15] = 0.6 w/v % Compound A transdermal once a day, Day 15
[16] = 0.6 w/v % Compound A transdermal once a day, Day 22

IC50 [4]: 1320 nM | IC50 [5]: 1330 nM
SMILES: CCCCCCCC1(CC[C@@H]2[C@@H](C/C=C\CCCC(=O)OC(C)C)[C@@H](O)C[C@H]2O)OCCO1 [Compound A, isopropyl (Z)-7-[(1R,2R,3R,5S)-2-(3,3-ethylenedioxydecyl)-3,5-dihydroxycyclopentyl]hept-5-enoate]
IC50 [1]: 9.23 µM | Dermatitis score (average ± standard error) ([2]; 0.08 w/v % Compound A transdermal once a day, Day 1 of administration): 3.8 ± 0.4 | Dermatitis score (average ± standard error) ([2]; 0.08 w/v % Compound A transdermal once a day, Day 8): 3.7 ± 0.6 | Dermatitis score (average ± standard error) [2, 7]: 6.2 ± 0.7 | Dermatitis score (average ± standard error) [2, 8]: 8.0 ± 0.5 | Dermatitis score (average ± standard error) [2, 9]: 9.0 ± 0.7 | Dermatitis score (average ± standard error) [2, 10]: 3.3 ± 0.5 | Dermatitis score (average ± standard error) ([2]; 0.3 w/v % Compound A transdermal once a day, Day 8): 3.5 ± 0.4 | Dermatitis score (average ± standard error) [2, 11]: 5.5 ± 0.5 | Dermatitis score (average ± standard error) [2, 12]: 7.5 ± 0.7 | Dermatitis score (average ± standard error) [2, 13]: 8.1 ± 0.5 | Dermatitis score (average ± standard error) [2, 14]: 3.6 ± 0.3 | Dermatitis score (average ± standard error) [2, 15]: 6.0 ± 0.7 | Dermatitis score (average ± standard error) [2, 16]: 8.3 ± 0.4 | Dermatitis score (average ± standard error) ([2]; 0.6 w/v % Compound A transdermal once a day, Day 29): 9.3 ± 0.6 | progression of early dermatitis ([2]; compared to the group administered with the base for compound A, Day 8 dermatitis score): tendency to be suppressed | IC50 [3]: 6.3 µM | Hair restoration score (average ± standard error) ([6]; 0.08 w/v % Compound A transdermal once a day, Day 1): 0.0 ± 0.0 | Hair restoration score (average ± standard error) [6, 7]: 2.2 ± 0.1 | Hair restoration score (average ± standard error) [6, 8]: 1.4 ± 0.2 | Hair restoration score (average ± standard error) [6, 9]: 1.5 ± 0.2 | Hair restoration score (average ± standard error) [6, 10]: 0.0 ± 0.0 | Hair restoration score (average ± standard error) [6, 11]: 2.1 ± 0.2 | Hair restoration score (average ± standard error) [6, 12]: 1.6 ± 0.2 | Hair restoration score (average ± standard error) [6, 13]: 1.9 ± 0.2 | Hair restoration score (average ± standard error) [6, 14]: 0.0 ± 0.0 | Hair restoration score (average ± standard error) [6, 15]: 1.8 ± 0.2 | Hair restoration score (average ± standard error) [6, 16]: 1.5 ± 0.2 | Hair restoration score (average ± standard error) ([6]; 0.6 w/v % Compound A transdermal once a day, Day 29, P < 0.05 vs Day 22): 2.0 ± 0.0 | change in hair restoration score (improvement in the hair loss) ([6]; Day 29 of administration compared to Day 22): observed in a dose-dependent manner
